This is an account of results in US10174202B2, “Dyes with phosphinic acid, phosphinate, phosphonate and phosphonamidate substituents as auxochromic groups and methods for preparing the same” (Max-Planck-Gesellschaft zur Foerderung der Wissenschaften …, priority 2017, dated 2019).

Holding throughout (assay type): physicochemical
One data set is described as follows: Fluorescence lifetime. To be noted: in acetonitrile.
Data set [1] is described as follows: Absorption spectroscopy (UV/Vis). The protocol: (§1) Absorption spectra were recorded with a Varian Cary 4000 UV-Vis double-beam spectrophotometer (Agilent Technologies, USA). For the determination of the absorption spectra, quartz cells with a 1 cm path length were used. Emission spectra and fluorescence quantum yield were obtained on a Quantaurus-QY Absolute PL quantum yield spectrometer C11347 (Hamamatsu Photonics, Japan) or on a Varian Cary Eclipse fluorescence spectrometer (Agilent Technologies, USA).

Data set [2] in a line: Emission spectra and fluorescence quantum yield. The procedure:
as §1

The mark [3] stands for this setting: in acetonitrile, trifluoroacetate.
Where [4] appears, read: in aq. PBS, pH 7.4, trifluoroacetate.

SMILES strings stand for the structures. Several values for one entry are separate records, joined by “and”; a condition that tells them apart may be missing. Equal values may be shown once. Where a name gives a salt, the structure may show the parent alone. Marks after values point to notes of the source that are not given here.

For the compound `CCN(CC)c1ccc2c(P(=O)(OC)OC)c(-c3nc4ccccc4s3)c(=O)oc2c1` [Compound 1, Dimethyl [3-(benzo[d]thiazol-2-yl)-7-(diethylamino)-2-oxo-2H-chromen-4-yl]phosphonate], the fluorescence lifetime in “Fluorescence lifetime” is reported as 2.55^a ns. In data set [1] (in acetonitrile), the Absorption max. was determined as 439 nm and the “ε at absorption max.” value came out at 24000 M⁻¹ cm⁻¹. Besides, in data set [2] (in acetonitrile), the Emission max. stood at 651 nm; the “QY (fluorescence quantum yield, Φfl)” value stood at 0.20; the Stokes shift is 212^a nm.

As to `COP(=O)(OC)c1c2ccc(=[N+](C)C)cc-2oc2cc(N(C)C)ccc12.O=C([O-])C(F)(F)F` [Compound 5, 9-(Dimethoxyphosphoryl)-3,6-bis(dimethylamino)-9H-xanthenylium trifluoroacetate], the “ε at absorption max.” value in data set [1] (in aq. PBS, pH 7.4) came to 21400 M⁻¹ cm⁻¹. In data set [2] (in aq. PBS, pH 7.4), the Emission max. was 667 nm and the “QY (fluorescence quantum yield, Φfl)” value worked out at 0.16.

As for `CC(C)OP(=O)(OC(C)C)c1c2ccc(N(C)C)cc2[o+]c2cc(N(C)C)ccc12.O=C([O-])C(F)(F)F` [Compound 6, 9-(Diisopropoxyphosphoryl)-3,6-bis(dimethylamino)-9H-xanthenylium trifluoroacetate], the Absorption max. amounted to 617 nm in data set [1] (in acetonitrile) and 629 nm in data set [1] (in aq. PBS, pH 7.4). The “ε at absorption max.” value was 57638 M⁻¹ cm⁻¹ and 57600 M⁻¹ cm⁻¹ in data set [1] (setting [3]); 52254 M⁻¹ cm⁻¹ and 52300 M⁻¹ cm⁻¹ in data set [1] (setting [4]). The Emission max. in data set [2] (in acetonitrile) was 649 nm; in data set [2] (in aq. PBS, pH 7.4) it was 668 nm. The “QY (fluorescence quantum yield, Φfl)” value in data set [2] (in acetonitrile) worked out at 0.38; in data set [2] (in aq. PBS, pH 7.4) it was 0.12. Also, the Stokes shift in data set [2] (in acetonitrile) is given as 32 nm; in data set [2] (in aq. PBS, pH 7.4), 39 nm.

Take `COP(=O)(c1c2ccc(N(C)C)cc2[o+]c2cc(N(C)C)ccc12)N(C(C)C)C(C)C.O=C([O-])C(F)(F)F` (stereo not shown) [Compound 7, 9-[(Diisopropylamino)(methoxy)phosphoryl]-3,6-bis(dimethylamino)-9H-xanthenylium trifluoroacetate]: the Absorption max. is listed as 616 nm in data set [1] (in acetonitrile) and 628 nm in data set [1] (in aq. PBS, pH 7.4). Besides, the “ε at absorption max.” value in data set [1] (setting [3]) was 52455 M⁻¹ cm⁻¹ and 52500 M⁻¹ cm⁻¹; in data set [1] (setting [4]), 46051 M⁻¹ cm⁻¹ and 46100 M⁻¹ cm⁻¹. Further, the Emission max. worked out at 649 nm in data set [2] (in acetonitrile) and 664 nm in data set [2] (in aq. PBS, pH 7.4). For the same compound, the “QY (fluorescence quantum yield, Φfl)” value in data set [2] (in acetonitrile) was 0.39; in data set [2] (in aq. PBS, pH 7.4) it was 0.11. Besides, the Stokes shift in data set [2] (in acetonitrile) worked out at 33 nm; in data set [2] (in aq. PBS, pH 7.4), 36 nm.

For the compound `CN(C)c1ccc2c(P(=O)(c3ccccc3)c3ccccc3)c3ccc(N(C)C)cc3[o+]c2c1.O=C([O-])C(F)(F)F` [Compound 8, 3,6-Bis(dimethylamino)-9-(diphenylphosphoryl)-9H-xanthenylium trifluoroacetate], in data set [1] (in acetonitrile), the Absorption max. was 574 nm. This compound had an Absorption max. in data set [1] (in aq. PBS, pH 7.4) of 601 nm. Also, in data set [2] (in acetonitrile), the Emission max. is reported as 600 nm; the “QY (fluorescence quantum yield, Φfl)” value stood at 0.35; the Stokes shift was found to be 26 nm. Moreover, in data set [2] (in aq. PBS, pH 7.4), the Emission max. was found to be 639 nm; the “QY (fluorescence quantum yield, Φfl)” value was determined as 0.26; the Stokes shift is 38 nm.

In the case of `C=CCOC(=O)CCCOP(=O)(OC)[c+]1c2ccc(N(C)C)cc2oc2cc(N(C)C)ccc21` (stereo not shown) [Compound 12, 9-[[4-(Allyloxy)-4-oxobutoxy](methoxy)phosphoryl]-3,6-bis(dimethylamino)-9H-xanthen-9-ylium chloride], in data set [1] (in acetonitrile), the Absorption max. amounted to 621 nm; the “ε at absorption max.” value was 42690 M⁻¹ cm⁻¹ and 42700 M⁻¹ cm⁻¹. Besides, in data set [1] (in aq. PBS, pH 7.4), the Absorption max. is on record as 632 nm and the “ε at absorption max.” value was 29540 M⁻¹ cm⁻¹. Further, in data set [2] (in acetonitrile), the Emission max. is 653 nm; the “QY (fluorescence quantum yield, Φfl)” value came out at 0.32; the Stokes shift was 32 nm. Also, in data set [2] (in aq. PBS, pH 7.4), the Emission max. is listed as 669 nm; the “QY (fluorescence quantum yield, Φfl)” value came out at 0.17; the Stokes shift stood at 37 nm.

As for `CN(C)c1ccc2c([PH](=O)[O-])c3ccc(N(C)C)cc3[o+]c2c1` [Compound 13, [3,6-Bis(dimethylamino)-9H-xanthenylium-9-yl]phosphinate], in data set [1] (in aq. PBS, pH 7.4), the Absorption max. was determined as 590 nm; the “ε at absorption max.” value is 59543 M⁻¹ cm⁻¹ and 59400 M⁻¹ cm⁻¹. In data set [2] (in aq. PBS, pH 7.4), the Emission max. was found to be 627 nm; the “QY (fluorescence quantum yield, Φfl)” value was 0.33; the Stokes shift was 37^b nm.

`CCOP(=O)(CC(=O)[O-])c1c2ccc(N(C)C)cc2[o+]c2cc(N(C)C)ccc12` (stereo not shown) [Compound 14, 2-[[3,6-Bis(dimethylamino)-9H-xanthenylium-9-yl](ethoxy)phosphoryl]acetate]: in data set [1] (in acetonitrile), the Absorption max. is reported as 625 nm and the “ε at absorption max.” value came to 22599 M⁻¹ cm⁻¹. In addition, in data set [1] (in aq. PBS, pH 7.4), the Absorption max. is recorded as 631 nm and the “ε at absorption max.” value was determined as 47622 M⁻¹ cm⁻¹. Further, in data set [2] (in acetonitrile), the Emission max. came out at 656 nm; the “QY (fluorescence quantum yield, Φfl)” value was 0.32; the Stokes shift was determined as 31 nm. Also, in data set [2] (in aq. PBS, pH 7.4), the Emission max. is listed as 667 nm; the “QY (fluorescence quantum yield, Φfl)” value is on record as 0.22; the Stokes shift stood at 36 nm.

For `CN(C)c1ccc2c(P(=O)([O-])CCC(=O)O)c3ccc(=[N+](C)C)cc-3oc2c1` [Compound 15, [3,6-Bis(dimethylamino)-9H-xanthenyhum-9-yl](2-carboxyethyl)phosphinate], in data set [1] (in aq. PBS, pH 7.4), the Absorption max. is 598 nm; the “ε at absorption max.” value is 52094 M⁻¹ cm⁻¹ and 52100 M⁻¹ cm⁻¹. In data set [2] (in aq. PBS, pH 7.4), the Emission max. is given as 636 nm; the “QY (fluorescence quantum yield, Φfl)” value turned out to be 0.29; the Stokes shift is reported as 38^b nm.

Regarding `COP(=O)(C1=c2cc3c4c(c2Oc2c1cc1c5c2CCCN5CCC1)CCC[N+]=4CCC3)N(C(C)C)C(C)C` (stereo not shown) [Compound 17, 9-[(Diisopropylamino)(methoxy)phosphoryl]-1H,2H,3H5H,6H,7H,11H,12H,13H,15H,16H,17H-pyrido[3,2,1-ij]quinolizino[1′,9′:6,7,8]chromeno[2,3-f]quinolinium trifluoroacetate], the Absorption max. in data set [1] (in acetonitrile) stood at 649 nm; in data set [1] (in aq. PBS, pH 7.4) it was 661 nm. Besides, the “ε at absorption max.” value in data set [1] (setting [3]) is 52455 M⁻¹ cm⁻¹ and 53000 M⁻¹ cm⁻¹; in data set [1] (setting [4]) it was 46976 M⁻¹ cm⁻¹ and 47000 M⁻¹ cm⁻¹. Moreover, the Emission max. stood at 679 nm in data set [2] (in acetonitrile) and 696 nm in data set [2] (in aq. PBS, pH 7.4). Moreover, the “QY (fluorescence quantum yield, Φfl)” value in data set [2] (in acetonitrile) is recorded as 0.25; in data set [2] (in aq. PBS, pH 7.4) it was 0.11. In addition, the Stokes shift in data set [2] (in acetonitrile) is on record as 30 nm; in data set [2] (in aq. PBS, pH 7.4), 35 nm.

In the case of `COP(=O)([O-])C1=c2cc3c4c(c2Oc2c1cc1c5c2CCCN5CCC1)CCC[N+]=4CCC3` [Compound 18, Methyl (1H,2H,3H,5H,6H,7H,11H,12H,13H,15H,16H,17H-pyrido[3,2,1-ij]quinolizino[1′,9′:6,7,8]chromeno[2,3-f]quinolinium-9-yl)phosphonate], in data set [1] (in acetonitrile), the Absorption max. was found to be 596 nm; the “ε at absorption max.” value was 49565 M⁻¹ cm⁻¹ and 49600 M⁻¹ cm⁻¹. In data set [1] (in aq. PBS, pH 7.4), the Absorption max. worked out at 630 nm; the “ε at absorption max.” value is 52286 M⁻¹ cm⁻¹ and 52300 M⁻¹ cm⁻¹. Further, in data set [2] (in acetonitrile), the Emission max. was 623 nm; the “QY (fluorescence quantum yield, Φfl)” value stood at 0.85; the Stokes shift worked out at 27 nm. In addition, in data set [2] (in aq. PBS, pH 7.4), the Emission max. worked out at 666 nm; the “QY (fluorescence quantum yield, Φfl)” value came to 0.17; the Stokes shift is reported as 36 nm.

On to `CCOP(=O)(C1=c2cc3c4c(c2Oc2c1cc1c5c2CCCN5CCC1)CCC[N+]=4CCC3)N(C)CCC(=O)O` (stereo not shown) [Compound 19, 9-[[(2-Carboxyethyl)(methyl)amino](ethoxy)phosphoryl]-1H,2H,3H,5H,6H,7H,11H,12H,13H,15H,16H,17H-pyrido[3,2,1-ij]quinolizino[1′,9′:6,7,8]chromeno[2,3-f]quinolinium trifluoroacetate], for which, in data set [1] (in acetonitrile), the Absorption max. was found to be 648 nm and the “ε at absorption max.” value came to 29373 M⁻¹ cm⁻¹. Also, in data set [1] (in aq. PBS, pH 7.4), the Absorption max. was found to be 659 nm and the “ε at absorption max.” value worked out at 37214 M⁻¹ cm⁻¹. In data set [2] (in acetonitrile), the Emission max. came out at 682 nm; the “QY (fluorescence quantum yield, Φfl)” value was determined as 0.19; the Stokes shift came out at 34 nm. Moreover, in data set [2] (in aq. PBS, pH 7.4), the Emission max. was 705 nm; the “QY (fluorescence quantum yield, Φfl)” value is recorded as 0.11; the Stokes shift is recorded as 46 nm.

On to `COP(=O)(OC)c1c2ccc(N(C)C)cc2[n+](C)c2cc(N(C)C)ccc12` [Compound 22, 9-(Dimethoxyphosphoryl)-3,6-bis(dimethylamino)-10-methylacridinium trifluoroacetate], for which, in data set [1] (in methanol), the Absorption max. is given as 560 nm and the “ε at absorption max.” value stood at 43000 M⁻¹ cm⁻¹. In addition, in data set [2] (in methanol), the Emission max. is 620 nm; the “QY (fluorescence quantum yield, Φfl)” value came to 0.95; the Stokes shift is listed as 60^e nm.

As for `CN(C)c1ccc2c(c1)-c1cccc3c(N(C)C)ccc(c13)C2.[O-][Cl+3]([O-])([O-])O` [Compound 28d], in data set [1] (in methanol), the Absorption max. is on record as 646 nm and the “ε at absorption max.” value is 23000 M⁻¹ cm⁻¹. Further, in data set [2] (in methanol), the Emission max. was 673 nm and the “QY (fluorescence quantum yield, Φfl)” value was determined as 0.25.

Consider `CC1=CC(C)=[N+]2C1=C(P(=O)(OC(C)C)OC(C)C)c1c(C)cc(C)n1[B-]2(F)F` [Compound 29, 10-(Diisopropoxyphosphoryl)-5,5-difluoro-1,3,7,9-tetramethyl-5H-dipyrrolo[1,2-c:2′,1′-f][1,3,2]diazaborinin-4-ium-5-uide], for which, in data set [1] (in acetonitrile), the Absorption max. is given as 574 nm and the “ε at absorption max.” value came out at 33000 M⁻¹ cm⁻¹. Moreover, the “fluorescence emission (in words)” value in data set [2] is given as “no emission (quencher)”. In data set [2] (in acetonitrile), the Emission max. amounted to 647 nm; the “QY (fluorescence quantum yield, Φfl)” value is on record as less than 0.002; the Stokes shift is listed as 73^a nm.
